Laboratory results taken from patent US20240391904A1, “DIHYDROPYRIMIDINE BASED COMPOUND, PREPARATION METHOD THEREFOR AND USE OF THEREOF” (CHENGDU SHIBEIKANG BIOMEDICAL TECHNOLOGY CO., LTD., priority 2021, published 2024).
Marks after values point to notes of the source that are not given here.

Tests used:
human P2X3 receptor = molecular target: T1, human P2X3 receptor (Homo sapiens, UniProt P56373); test: In vitro bioactivity evaluation: FLIPR antagonist mode, HEK 293 cells stably transfected with human P2X3 receptor, BZATP agonist
T1 sequence (P56373 1-397): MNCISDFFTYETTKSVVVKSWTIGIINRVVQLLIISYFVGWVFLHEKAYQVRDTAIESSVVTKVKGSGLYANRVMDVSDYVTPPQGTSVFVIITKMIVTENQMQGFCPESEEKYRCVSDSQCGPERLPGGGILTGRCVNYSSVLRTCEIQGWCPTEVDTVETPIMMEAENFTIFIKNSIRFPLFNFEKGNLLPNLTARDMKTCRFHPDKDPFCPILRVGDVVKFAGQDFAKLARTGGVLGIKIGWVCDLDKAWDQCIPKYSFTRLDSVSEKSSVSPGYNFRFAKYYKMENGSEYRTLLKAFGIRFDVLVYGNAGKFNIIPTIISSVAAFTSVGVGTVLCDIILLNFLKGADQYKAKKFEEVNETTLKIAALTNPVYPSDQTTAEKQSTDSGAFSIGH
Description: Cell culture medium: DMEM high glucose; 10% FBS; 1% PenStrep.
The Petri dish was placed in an incubator for 1-3 minutes or until the cells were digested, 3 mL of a complete medium was then added to terminate the digestion, and the cell density was determined by a cell counter. • 2) After centrifugation at 1000 rpm/min for 5 min, the cells were resuspended in a growth medium and the volume of the suspension was adjusted to reach a cell density of 4×10^5 cells/mL (1×10^4 cells/25 μL). • 3) 10 μL of 5× Matrigel was added into a black microplate, and the microplate was placed in an incubator for 15 min. The microplate was removed and invertedly centrifuged at 300 g/min for 30 s to remove the 5× Matrigel.

KM mice = test: Mouse cough test (ammonia-induced coughing); assay type: in vivo; details: for Number of Coughs (time): mice; for reduction in the number of coughs at 3 mg/kg: compared with model group; for duration of the cough suppression action: 30 to 120 min after administration
Description: Compounds of Example 1-24 (synthesized in the inventor's laboratory), positive control drug (gefapixant, batch No: 01030-210326-2-1, purchased from Holder Pharmaceuticals), the compound of Comparative Example 1 (synthesized in the inventor's laboratory).
Healthy adult KM mice, half of them are male and half of them are female, 6 per group, weighing about 28-30 g.
Most of the animal coughing models currently reported in the literatures use mechanical, chemical and electrical stimulations to stimulate the nerves and receptors of the animals to trigger coughing. According to the characteristics of the candidate compounds and the existing similar target compounds for reference, the method of concentrated ammonia induction was initially chosen to establish the cough modeling test in mice.
Preparation of 50% ammonia solution: 2.5 ml of ammonia was dissolved in […] of a 0.9% sodium chloride solution for injection and mixed evenly.
Preparation of a solution of the compound of Comparative Example 1: 9 mg of the compound of Comparative Example 1 was weighed and dissolved in 3 ml of a 0.5% CMC-Na solution, and mixed evenly to prepare a 3 mg/ml solution.
Preparation of a solution of the example compounds: 9 mg of the example compound was weighed and dissolved in 3 ml of a 0.5% CMC-Na solution, and mixed evenly to prepare a 3 mg/ml solution.
Grouping: a positive control group, a Comparative Example 1 group, Example 1 group-Example 24 group, and a model group were set up. Six KM mice were taken from each group and administered by gavage; here, the Comparative Example 1 group was given the compound of Comparative Example 1, the positive control group was given the positive control drug (gefapixant, commercially purchased), the Example groups were given the compounds prepared in the corresponding Examples, with each group given one of three dosages: 30 mg/kg, […], and 3 mg/kg; and the model group was given the same volume of 0.5% CMC-Na solution.
30 min, 60 min or 120 min after administration, the mice were placed in a 500 ml beaker with a cotton ball (weight 100±5 mg) containing 0.3 ml of 50% ammonia.
(1) Judgment criteria of coughing: coughing was manifest in contraction of abdominal muscles or chest contraction, with mouth wide opening and a coughing sound.
(2) The number of coughs (times) within 3 min was recorded with a stopwatch, and the data were statistically analyzed by software, with the data in each group shown in mean±standard deviation. A one-way analysis of variance among the groups was conducted, and P<0.05 was considered a difference having a statistical significance.

[1] = 30 mg/kg by gavage, 30 min after administration, coughs within 3 min, ammonia-induced
[2] = 30 mg/kg by gavage, 60 min after administration, coughs within 3 min (Table 6)
[3] = 30 mg/kg by gavage, 120 min after administration, coughs within 3 min
[4] = 30 mg/kg, 30 min after administration
[5] = 3 mg/kg by gavage, 60 min after administration, coughs within 3 min
[6] = 10 mg/kg by gavage, 60 min after administration, coughs within 3 min
[7] = 30 mg/kg by gavage, 60 min after administration, coughs within 3 min (Table 5)

SMILES | IC50 (human P2X3 receptor) | Number of Coughs (time) (KM mice; [1]) | cough suppressing effect compared with the positive compound (KM mice; [4]) | other results
C[C@@H](Cn1c(=O)cc(Nc2ccc(Oc3ncccc3F)cc2)n(Cc2ccc(Cl)cc2)c1=O)C(=O)O [Comparative Example 1, reference compound] | 10.1 to 50 nM | 25.61* time |  | cough suppressing effect at 120 min (KM mice; 30 mg/kg, 120 min after administration): did not have a significant cough suppressing effect at 120 min; Number of Coughs (time) (KM mice; [2]): 24.12** time; Number of Coughs (time) (KM mice; [3]): 44.17 time
C[C@@H](Cn1c(=O)cc(Nc2ccc(Oc3cnccn3)cc2)n(Cc2ccc(Cl)cc2)c1=O)C(=O)O [Compound 2] |  | 27.67* time |  | 
C[C@@H](Cn1c(=O)cc(Nc2ccc(Oc3cnccn3)cc2)n(Cc2ccc(Cl)cc2)c1=O)C(=O)NS(C)(=O)=O [Compound 3] | 10.1 to 50 nM | 16.21** time | stronger than that of the positive compound | reduction in the number of coughs at 3 mg/kg (KM mice; 60 min after administration): statistically significant (P<0.01) reduction in the number of coughs; cough suppressing efficacy at 10 mg/kg (KM mice; 60 min after administration): improved cough suppressing efficacy than the positive control drug; duration of the cough suppression action (KM mice; 30 mg/kg): significantly prolonged compared with that of the compound of Comparative Example 1; Number of Coughs (time) (KM mice; [5]): 21.14** time; Number of Coughs (time) (KM mice; [6]): 19.83**^Δ time; Number of Coughs (time) (KM mice; [7]): 16.02** time; Number of Coughs (time) (KM mice; [2]): 16.02** time; Number of Coughs (time) (KM mice; [3]): 15.13**^Δ time
COC(=O)C(C)(C)Cn1c(=O)cc(Nc2ccc(Oc3cnccn3)cc2)n(Cc2ccc(Cl)cc2)c1=O [Compound 4] | < 10 nM | 15.61** time | stronger than that of the positive compound | 
CC(C)(Cn1c(=O)cc(Nc2ccc(Oc3cnccn3)cc2)n(Cc2ccc(Cl)cc2)c1=O)C(=O)O [Compound 5] |  | 33.67 time |  | 
CC(C)(Cn1c(=O)cc(Nc2ccc(Oc3cnccn3)cc2)n(Cc2ccc(Cl)cc2)c1=O)C(=O)NS(C)(=O)=O [Compound 6] | 10.1 to 50 nM | 17.81** time | stronger than that of the positive compound | 
C[C@@H](Cn1c(=O)cc(Nc2ccc(Oc3ccccn3)cc2)n(Cc2ccc(Cl)cc2)c1=O)C(=O)O [Compound 7] | < 10 nM | 15.20** time | stronger than that of the positive compound | reduction in the number of coughs at 3 mg/kg (KM mice; 60 min after administration): statistically significant (P<0.01) reduction in the number of coughs; cough suppressing efficacy at 10 mg/kg (KM mice; 60 min after administration): improved cough suppressing efficacy than the positive control drug; Number of Coughs (time) (KM mice; [5]): 23.34** time; Number of Coughs (time) (KM mice; [6]): 20.83**^Δ time; Number of Coughs (time) (KM mice; [7]): 15.00** time; Number of Coughs (time) (KM mice; [2]): 15.00** time; Number of Coughs (time) (KM mice; [3]): 38.13 time
COC(=O)[C@@H](C)Cn1c(=O)cc(Nc2ccc(Oc3ccccn3)cc2)n(Cc2ccc(Cl)cc2)c1=O [Compound 8] | 10.1 to 50 nM | 25.00* time |  | Number of Coughs (time) (KM mice; [7]): 27.33* time
CC(C)(Cn1c(=O)cc(Nc2ccc(Oc3ccccn3)cc2)n(Cc2ccc(Cl)cc2)c1=O)C(=O)O [Compound 10] | < 10 nM | 17.20** time | stronger than that of the positive compound | duration of the cough suppression action (KM mice; 30 mg/kg): short duration of action; cough suppressing effect at 60 min (KM mice; 30 mg/kg, 60 min after administration): no cough suppressing effect at 60 min; Number of Coughs (time) (KM mice; [7]): 40.17 time
COC(=O)C(C)(C)Cn1c(=O)cc(Nc2ccc(Oc3ccccn3)cc2)n(Cc2ccc(Cl)cc2)c1=O [Compound 11] | 10.1 to 50 nM | 31.00 time |  | 
O=C(O)C1(Cn2c(=O)cc(Nc3ccc(Oc4ccccn4)cc3)n(Cc3ccc(Cl)cc3)c2=O)CC1 [Compound 13] | 10.1 to 50 nM | 25.60 time |  | 
COC(=O)C1(Cn2c(=O)cc(Nc3ccc(Oc4ccccn4)cc3)n(Cc3ccc(Cl)cc3)c2=O)CC1 [Compound 14] | 10.1 to 50 nM | 32.17 time |  | 
C[C@@H](Cn1c(=O)cc(Nc2ccc(Oc3ccccn3)cc2)n(Cc2ccc(C(F)(F)F)cc2)c1=O)C(=O)NS(C)(=O)=O [Compound 18] |  | 20.57** time |  | 
C[C@@H](Cn1c(=O)cc(Nc2ccc(Oc3ccc(OC(F)(F)F)cn3)cc2)n(Cc2ccc(Cl)cc2)c1=O)C(=O)NS(C)(=O)=O [Compound 19, (S)-3-(3-(4-chlorobenzyl)-2,6-dioxo-4-(4-(5-((5-trifluoromethoxy)pyridin-2-yl)oxyphenyl)amino)-3,6-dihydropyrimidin-1(2H)-yl)-2-methyl-N-(sulfonyl)propionamide group] |  | 17.62** time | stronger than that of the positive compound | 
C[C@@H](Cn1c(=O)cc(Nc2ccc(Oc3ccc(OC(F)F)cn3)cc2)n(Cc2ccc(Cl)cc2)c1=O)C(=O)NS(C)(=O)=O [Compound 20, (S)-3-(3-(4-chlorobenzyl)-2,6-dioxo-4-(4-(5-((5-difluoromethoxy)pyridin-2-yl)oxyphenyl)amino)-3,6-dihydropyrimidin-1(2H)-yl)-2-methyl-N-(sulfonyl)propionamide group] | 10.1 to 50 nM | 15.17** time | stronger than that of the positive compound | 
C[C@@H](Cn1c(=O)cc(Nc2ccc(Oc3ccc(Cl)cn3)cc2)n(Cc2ccc(Cl)cc2)c1=O)C(=O)NS(C)(=O)=O [Compound 21] |  | 18.83** time |  | 
C[C@@H](Cn1c(=O)cc(Nc2ccc(Oc3ncccn3)cc2)n(Cc2ccc(Cl)cc2)c1=O)C(=O)NS(C)(=O)=O [Compound 22] | 50.1 to 100 nM | 35.61 time |  | 
C[C@@H](Cn1c(=O)cc(Nc2ccc(Oc3ccccc3)cc2)n(Cc2ccc(Cl)cc2)c1=O)C(=O)NS(C)(=O)=O [Compound 23] | 50.1 to 100 nM | 34.67 time |  | 
